Measured values reported in the OligoGym collection.
HELM strings list units from the 5' end as sugar, base in round brackets, then linkage (d deoxyribose, r ribose, m 2'-O-methyl, p phosphodiester). Strings are as the collection lists them; they lack the last nucleoside at the 3' end of the tested compound. [moe] = 2'-O-(2-methoxyethyl) (MOE); [sp] = phosphorothioate linkage; [m5C] = 5-methylcytosine

Biological target: UBE3A-ATS
Assay: mouse, dose not given
Conditions: ASO

Substance: RNA1{[moe](T)[sp].[moe](A)p.[moe](T)p.[moe](T)p.[moe](G)p.d(G)[sp].d(T)[sp].d([m5C])[sp].d(A)[sp].d(T)[sp].d([m5C])[sp].d(T)[sp].d([m5C])[sp].d(G)[sp].d(G)[sp].[moe](G)p.[moe](T)p.[moe](A)[sp].[moe](T)}$$$$ (last 3' nucleoside missing)
- 3 h FOB score: 3.3 score 0-7

Substance: RNA1{[moe](T)[sp].[moe](A)p.[moe](T)p.[moe](T)p.[moe](G)p.d([m5C])[sp].d([m5C])[sp].d(T)[sp].d(T)[sp].d([m5C])[sp].d(A)[sp].d([m5C])[sp].d(T)[sp].d(G)[sp].d([m5C])[sp].[moe](T)p.[moe](G)p.[moe]([m5C])[sp].[moe]([m5C])}$$$$ (last 3' nucleoside missing)
- 3 h FOB score: 3.2 score 0-7

Substance: RNA1{[moe](T)[sp].[moe](A)p.[moe](T)p.[moe](T)p.d(G)[sp].d(G)[sp].d(T)[sp].d([m5C])[sp].d(A)[sp].d(T)[sp].d([m5C])[sp].d(T)[sp].d([m5C])[sp].d(G)[sp].[moe](G)p.[moe](G)p.[moe](T)p.[moe](A)[sp].[moe](T)}$$$$ (last 3' nucleoside missing)
- 3 h FOB score: 4 score 0-7

Substance: RNA1{[moe](T)[sp].[moe](G)[sp].[moe]([m5C])[sp].[moe]([m5C])[sp].[moe](A)[sp].d(T)[sp].d([m5C])[sp].d(T)[sp].d(T)[sp].d([m5C])[sp].d(A)[sp].d(A)[sp].d(G)[sp].d(A)[sp].d([m5C])[sp].[moe](T)[sp].[moe](A)[sp].[moe](A)[sp].[moe](G)}$$$$ (last 3' nucleoside missing)
- 3 h FOB score: 6.8 score 0-7

Substance: RNA1{[moe](T)[sp].[moe](G)p.[moe](A)p.[moe](G)[sp].d([m5C])[sp].d(T)[sp].d(A)[sp].d(T)[sp].d([m5C])[sp].d(T)[sp].d(G)[sp].d(T)[sp].[moe](A)p.[moe]([m5C])p.[moe](A)p.[moe](A)[sp].[moe](A)}$$$$ (last 3' nucleoside missing)
- 3 h FOB score: 3 score 0-7

Substance: RNA1{[moe](T)[sp].[moe](G)p.[moe](A)p.[moe](G)p.[moe]([m5C])[sp].d(T)[sp].d(A)[sp].d(T)[sp].d([m5C])[sp].d(T)[sp].d(G)[sp].d(T)[sp].d(A)[sp].[moe]([m5C])p.[moe](A)p.[moe](A)[sp].[moe](A)}$$$$ (last 3' nucleoside missing)
- 3 h FOB score: 4.7 score 0-7

Substance: RNA1{[moe](T)[sp].[moe](G)p.[moe](A)p.[moe](G)p.[moe]([m5C])p.[moe](T)[sp].d(A)[sp].d(T)[sp].d([m5C])[sp].d(T)[sp].d(G)[sp].d(T)[sp].d(A)[sp].d([m5C])[sp].[moe](A)p.[moe](A)[sp].[moe](A)}$$$$ (last 3' nucleoside missing)
- 3 h FOB score: 5 score 0-7

Substance: RNA1{[moe](T)[sp].[moe](G)p.[moe](A)p.[moe](G)p.[moe]([m5C])p.[moe](T)p.d(A)[sp].d(T)[sp].d([m5C])[sp].d(T)[sp].d(G)[sp].d(T)[sp].d(A)[sp].d([m5C])[sp].d(A)[sp].d(A)[sp].[moe](A)p.[moe](A)[sp].[moe](T)}$$$$ (last 3' nucleoside missing)
- 3 h FOB score: 5.3 score 0-7

Substance: RNA1{[moe](T)[sp].[moe](G)p.[moe](A)p.[moe](G)p.[moe]([m5C])p.d(T)[sp].d(A)[sp].d(T)[sp].d([m5C])[sp].d(T)[sp].d(G)[sp].d(T)[sp].d(A)[sp].d([m5C])[sp].d(A)[sp].[moe](A)p.[moe](A)p.[moe](A)[sp].[moe](T)}$$$$ (last 3' nucleoside missing)
- 3 h FOB score: 6.2 score 0-7

Substance: RNA1{[moe](T)[sp].[moe](G)p.[moe](A)p.[moe](G)p.d([m5C])[sp].d(T)[sp].d(A)[sp].d(T)[sp].d([m5C])[sp].d(T)[sp].d(G)[sp].d(T)[sp].d(A)[sp].d([m5C])[sp].[moe](A)p.[moe](A)p.[moe](A)p.[moe](A)[sp].[moe](T)}$$$$ (last 3' nucleoside missing)
- 3 h FOB score: 5.5 score 0-7

Substance: RNA1{[moe](T)[sp].[moe](G)p.[moe](A)p.[moe](T)[sp].d([m5C])[sp].d(A)[sp].d([m5C])[sp].d(A)[sp].d(T)[sp].d(T)[sp].d(A)[sp].d([m5C])[sp].[moe]([m5C])p.[moe]([m5C])p.[moe](A)p.[moe](T)[sp].[moe]([m5C])}$$$$ (last 3' nucleoside missing)
- 3 h FOB score: 0 score 0-7

Substance: RNA1{[moe](T)[sp].[moe](G)p.[moe](A)p.[moe](T)p.[moe](A)p.d(G)[sp].d(A)[sp].d(T)[sp].d(A)[sp].d([m5C])[sp].d(T)[sp].d(T)[sp].d(G)[sp].d(T)[sp].d(A)[sp].[moe](T)p.[moe](T)p.[moe](A)[sp].[moe](G)}$$$$ (last 3' nucleoside missing)
- 3 h FOB score: 3.8 score 0-7

Substance: RNA1{[moe](T)[sp].[moe](G)p.[moe](A)p.[moe](T)p.[moe]([m5C])[sp].d(A)[sp].d([m5C])[sp].d(A)[sp].d(T)[sp].d(T)[sp].d(A)[sp].d([m5C])[sp].d([m5C])[sp].[moe]([m5C])p.[moe](A)p.[moe](T)[sp].[moe]([m5C])}$$$$ (last 3' nucleoside missing)
- 3 h FOB score: 1 score 0-7

Substance: RNA1{[moe](T)[sp].[moe](G)p.[moe](A)p.[moe](T)p.[moe]([m5C])p.[moe](A)[sp].d([m5C])[sp].d(A)[sp].d(T)[sp].d(T)[sp].d(A)[sp].d([m5C])[sp].d([m5C])[sp].d([m5C])[sp].[moe](A)p.[moe](T)[sp].[moe]([m5C])}$$$$ (last 3' nucleoside missing)
- 3 h FOB score: 0 score 0-7

Substance: RNA1{[moe](T)[sp].[moe](G)p.[moe](A)p.[moe](T)p.[moe]([m5C])p.[moe](A)p.d([m5C])[sp].d(A)[sp].d(T)[sp].d(T)[sp].d(A)[sp].d([m5C])[sp].d([m5C])[sp].d([m5C])[sp].d(A)[sp].d(T)[sp].[moe]([m5C])p.[moe]([m5C])[sp].[moe](G)}$$$$ (last 3' nucleoside missing)
- 3 h FOB score: 0 score 0-7

Substance: RNA1{[moe](T)[sp].[moe](G)p.[moe](A)p.[moe](T)p.[moe]([m5C])p.d(A)[sp].d([m5C])[sp].d(A)[sp].d(T)[sp].d(T)[sp].d(A)[sp].d([m5C])[sp].d([m5C])[sp].d([m5C])[sp].d(A)[sp].[moe](T)p.[moe]([m5C])p.[moe]([m5C])[sp].[moe](G)}$$$$ (last 3' nucleoside missing)
- 3 h FOB score: 0 score 0-7

Substance: RNA1{[moe](T)[sp].[moe](G)p.[moe](A)p.[moe](T)p.[moe]([m5C])p.d(T)[sp].d(A)[sp].d(T)[sp].d(T)[sp].d(A)[sp].d(T)[sp].d(G)[sp].d(A)[sp].d(G)[sp].d(G)[sp].[moe](G)p.[moe]([m5C])p.[moe](A)[sp].[moe](T)}$$$$ (last 3' nucleoside missing)
- 3 h FOB score: 2 score 0-7

Substance: RNA1{[moe](T)[sp].[moe](G)p.[moe](A)p.[moe](T)p.d([m5C])[sp].d(A)[sp].d([m5C])[sp].d(A)[sp].d(T)[sp].d(T)[sp].d(A)[sp].d([m5C])[sp].d([m5C])[sp].d([m5C])[sp].[moe](A)p.[moe](T)p.[moe]([m5C])p.[moe]([m5C])[sp].[moe](G)}$$$$ (last 3' nucleoside missing)
- 3 h FOB score: 1 score 0-7

Substance: RNA1{[moe](T)[sp].[moe](G)p.[moe](G)p.[moe](G)p.[moe](T)p.d(T)[sp].d(A)[sp].d([m5C])[sp].d(T)[sp].d(T)[sp].d(T)[sp].d([m5C])[sp].d([m5C])[sp].d(A)[sp].d(A)[sp].[moe](T)p.[moe](A)p.[moe](G)[sp].[moe](A)}$$$$ (last 3' nucleoside missing)
- 3 h FOB score: 5.7 score 0-7

Substance: RNA1{[moe](T)[sp].[moe](G)p.[moe](G)p.[moe](T)[sp].d([m5C])[sp].d(A)[sp].d(T)[sp].d([m5C])[sp].d(T)[sp].d([m5C])[sp].d(G)[sp].d(G)[sp].[moe](G)p.[moe](T)p.[moe](A)p.[moe](T)[sp].[moe](A)}$$$$ (last 3' nucleoside missing)
- 3 h FOB score: 4.7 score 0-7

Substance: RNA1{[moe](T)[sp].[moe](G)p.[moe](G)p.[moe](T)p.[moe](A)p.d(T)[sp].d(T)[sp].d(G)[sp].d(A)[sp].d([m5C])[sp].d(A)[sp].d([m5C])[sp].d([m5C])[sp].d(T)[sp].d([m5C])[sp].[moe]([m5C])p.[moe](A)p.[moe](A)[sp].[moe]([m5C])}$$$$ (last 3' nucleoside missing)
- 3 h FOB score: 0.3 score 0-7

Substance: RNA1{[moe](T)[sp].[moe](G)p.[moe](G)p.[moe](T)p.[moe]([m5C])[sp].d(A)[sp].d(T)[sp].d([m5C])[sp].d(T)[sp].d([m5C])[sp].d(G)[sp].d(G)[sp].d(G)[sp].[moe](T)p.[moe](A)p.[moe](T)[sp].[moe](A)}$$$$ (last 3' nucleoside missing)
- 3 h FOB score: 6.3 score 0-7

Substance: RNA1{[moe](T)[sp].[moe](G)p.[moe](G)p.[moe](T)p.[moe]([m5C])p.[moe](A)[sp].d(T)[sp].d([m5C])[sp].d(T)[sp].d([m5C])[sp].d(G)[sp].d(G)[sp].d(G)[sp].d(T)[sp].[moe](A)p.[moe](T)[sp].[moe](A)}$$$$ (last 3' nucleoside missing)
- 3 h FOB score: 4.7 score 0-7

Substance: RNA1{[moe](T)[sp].[moe](G)p.[moe](G)p.[moe](T)p.[moe]([m5C])p.[moe](A)p.d(T)[sp].d([m5C])[sp].d(T)[sp].d([m5C])[sp].d(G)[sp].d(G)[sp].d(G)[sp].d(T)[sp].d(A)[sp].d(T)[sp].[moe](A)p.[moe](T)[sp].[moe](A)}$$$$ (last 3' nucleoside missing)
- 3 h FOB score: 6 score 0-7

Substance: RNA1{[moe](T)[sp].[moe](G)p.[moe](G)p.[moe](T)p.[moe]([m5C])p.d(A)[sp].d(T)[sp].d([m5C])[sp].d(T)[sp].d([m5C])[sp].d(G)[sp].d(G)[sp].d(G)[sp].d(T)[sp].d(A)[sp].[moe](T)p.[moe](A)p.[moe](T)[sp].[moe](A)}$$$$ (last 3' nucleoside missing)
- 3 h FOB score: 5.2 score 0-7

Substance: RNA1{[moe](T)[sp].[moe](G)p.[moe](G)p.[moe](T)p.d([m5C])[sp].d(A)[sp].d(T)[sp].d([m5C])[sp].d(T)[sp].d([m5C])[sp].d(G)[sp].d(G)[sp].d(G)[sp].d(T)[sp].[moe](A)p.[moe](T)p.[moe](A)p.[moe](T)[sp].[moe](A)}$$$$ (last 3' nucleoside missing)
- 3 h FOB score: 4 score 0-7

Substance: RNA1{[moe](T)[sp].[moe](G)p.[moe](G)p.[moe]([m5C])p.[moe](A)p.d(A)[sp].d(G)[sp].d(T)[sp].d(A)[sp].d(T)[sp].d(G)[sp].d([m5C])[sp].d(T)[sp].d(A)[sp].d(G)[sp].[moe](T)p.[moe]([m5C])p.[moe](A)[sp].[moe]([m5C])}$$$$ (last 3' nucleoside missing)
- 3 h FOB score: 2.3 score 0-7
